Tests used:
[1] = test system: senescence-accelerated mouse (SAMP8); experiment: Water maze test in senescence-accelerated mouse (SAMP8); format: in vivo; conditions: SAMP8, 0.25 mg/kg orally once a day, 8 days
Method: Using senescence-accelerated mouse (accelerated-senescence-prone mice 8: SAMP8) and normal senescence mouse (accelerated-senescence-resistant mice 1: SAMR1) as a control thereof, a water maze test was performed. Male SAMP8 and SAMR1 (22- to 25-week-old) were available from Takeda Pharmaceutical Company Limited (Osaka, Japan). The mice were individually raised in a cage at 23±1° C., 12 hr light/dark cycle (lighted at 7:00 am), and allowed to freely ingest feed (solid feed) and water.
Racemate DCP-LA and 4 optical isomers DCP-LA (α,α-, α,β-, β,α-, β,β-DCP-LA), each dissolved in 0.1 ml polyethylene glycol (PEG), or 0.1 ml PEG were orally administered once a day from the day when the water maze test was started. For each group, the water maze test was performed twice a day for 8 days, and the time required to reach a platform (acquisition latency) was measured.
For the water maze test, a circular plastic water tank (diameter 90 cm, depth 36 cm) was used. The inside of the water tank was completely painted in black, and dark water with India ink was filled up to 20 cm from the bottom (22° C.). A platform (diameter 11 cm) painted in black was placed in water such that it was 1 cm below the water surface. The water tank was placed in a test room, and several marks seen by the mice from the water tank were put thereon. During the test, the position of the marks was not changed. A platform was placed a predetermined position from the equal distance from the center and the end of the water tank, namely, center of one quadrant. At one of the randomly selected 5 points, the mouse was released facing the wall of the water tank, and the time necessary for evacuating on the platform (acquisition latency) was measured. When smoothly evacuated, the mouse was left on the platform for 10 seconds. From the day of water maze test and during the test, polyethylene glycol (PEG) alone or racemate DCP-LA (1 mg/kg), α,α-DCP-LA (0.25 mg/kg), α,β-DCP-LA (0.25 mg/kg), β,α-DCP-LA (0.25 mg/kg), or β,β-DCP-LA (0.25 mg/kg), each dissolved in PEG, was orally administered every day. The water maze test was performed twice a day, and the second test was started at 2 min from the first test. The test was continuously performed for 8 days, and the average value (±SEM) of acquisition latency of continuous 2 days until the mouse reached the platform was calculated (each n=5).

[2] = target: T1, PKC-ε (Rattus norvegicus, UniProt P09216); experiment: Intracellular PKC assay after knockdown of PKC-ε (siRNA) in PC-12 cells; format: cell-based; conditions: PKC-ε siRNA vs NC siRNA, FIG. 3
T1 construct: PC-12 cells were transfected with PKC-ε siRNA or NC siRNA; endogenous in cells; host or cells: rat PC-12 cells
T1 sequence (P09216 1-737): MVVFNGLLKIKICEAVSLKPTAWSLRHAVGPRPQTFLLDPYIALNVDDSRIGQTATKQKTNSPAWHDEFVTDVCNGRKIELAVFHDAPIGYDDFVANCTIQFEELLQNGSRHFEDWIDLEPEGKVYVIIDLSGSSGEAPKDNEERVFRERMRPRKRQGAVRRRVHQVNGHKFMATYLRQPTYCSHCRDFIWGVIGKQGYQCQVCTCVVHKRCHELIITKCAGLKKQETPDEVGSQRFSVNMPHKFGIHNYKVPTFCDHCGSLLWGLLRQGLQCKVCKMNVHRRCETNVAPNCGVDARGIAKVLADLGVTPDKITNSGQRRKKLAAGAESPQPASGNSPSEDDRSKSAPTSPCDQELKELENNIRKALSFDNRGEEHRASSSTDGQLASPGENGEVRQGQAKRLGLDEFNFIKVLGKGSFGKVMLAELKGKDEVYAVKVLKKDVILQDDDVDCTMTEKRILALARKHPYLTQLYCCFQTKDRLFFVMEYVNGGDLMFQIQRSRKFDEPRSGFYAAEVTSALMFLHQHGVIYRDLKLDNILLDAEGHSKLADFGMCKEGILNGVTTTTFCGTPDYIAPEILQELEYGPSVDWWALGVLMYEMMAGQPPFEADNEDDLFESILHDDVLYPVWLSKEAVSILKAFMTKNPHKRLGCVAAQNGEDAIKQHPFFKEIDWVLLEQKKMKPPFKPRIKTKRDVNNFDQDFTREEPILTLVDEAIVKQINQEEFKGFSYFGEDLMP
Method: According to the method described in a publication [Kanno T et al., J Lipid Res 47 (6):1146-1156, 2006], the PKC activity of rat PC-12 cells was assayed. The cells were treated with each DCP-LA optical isomer at 37° C. for 10 min. The treatment was performed in an extracellular solution [137 mM NaCl, 5.4 mM KCl, 10 mM MgCl2, 5 mM ethyleneglycol-bis(2-aminoethylether)-N,N,N′,N′-tetraacetic acid (EGTA), 0.3 mM Na2HPO4, 0.4 mM K2HPO4 and 20 mM 4-(2-hydroxyethyl)-1-piperazin-ethanesulfonic acid, pH 7.2]. Then, the cells were rinsed with 100 μl of phosphate-buffered saline (PBS) in the absence of Ca^2+, and incubated in an extracellular solution (50 μl) containing 50 μg/ml digitonin, 25 mM glycerol 2-phosphate, 200 μM ATP and 100 μM synthetic PKC substrate peptide (Pyr-Lys-Arg-Pro-Ser-Gln-Arg-Ser-Lys-Tyr-Leu (SEQ ID NO: 1); MW, 1,374; Pyr: […]) at 37° C. for 15 min. […] A substrate peptide peak and a new resultant product peak were detected at the absorbance of 214 nm (SPD-10Avp UV-VIS detector, Shimadzu Co., Kyoto, Japan). […] The molecular weight was calculated from the two standard spectra of bradykinin (MW 1060.2) and substance P (MW 1672.9).
The areas of the non-phosphorylated and phosphorylated substrate peptides were measured (total area corresponds to the concentration of PKC substrate peptide used). […]

- PKC activation induced by the compound after knocking down PKC-ε [2]: inhibited by knocking down PKC-ε
Compound: CCCCC[C@@H]1C[C@@H]1C[C@@H]1C[C@H]1CCCCCCCC(=O)O [α,β-DCP-LA, 8-[(1R,2S)-2-{(1R,2R)-2-pentylcyclopropylmethyl}-cyclopropyl]octanoic acid]
- acquisition latency as compared to the PEG administration group [1]: shortened acquisition latency
- acquisition latency as compared to the racemate DCP-LA (1 mg/kg) administration group [1]: significantly shortened acquisition latency
- acquisition latency as compared to the α,α-DCP-LA (0.25 mg/kg) administration group [1]: significantly shortened acquisition latency

Source: patent publication US9012500B2, “PKC-ε activator” (Nishizaki Bioinformation Research Institute, priority 2010, dated 2015)
